Patent publication US20260242352A1, “INHIBITION OF SHIP1 AS A THERAPEUTIC STRATEGY FOR THE TREATMENT OF ALZHEIMER'S DISEASE” (The Trustees of Indiana University, priority 2022, published 2026)

Columns and labels:
[1] = system: BV2 cells; assay: pHrodo-myelin phagocytosis/cell health assay, BV2 cells; assay type: cell-based; conditions: Mus musculus, BV-2, compound 48 hrs, 60 μM to 3 nM, (n) in cell
Procedure: pHrodo-myelin phagocytosis/cell health assay with microglial cells. This 384-well plate high content imaging assay was developed to quantify phagocytosis and cell health simultaneously using either BV2 or HMC3 immortalized microglial cell lines or primary microglia isolated from mouse brain. Cells were cultured in DMEM GlutaMax media (ThermoFisher) containing 10% FBS and Pen-Strep in 37° C. 5% CO2 incubator.
Day 1: Cells were plated (Corning Falcon 384 well Optilux Black and clear bottom plates for imaging) with BV2 at 400 cells/45 μl/well, HMC3 at 600 cells/45 μl/well, or primary at 2000 cell/45 μl/well.
Day 2: Cells were treated with 10× serially diluted compounds in a dose range of 60 μM to 3 nM for 48 hrs at 37° C.
Day 3: Cells were seeded with pHrodo-myelin (for total 20 hrs) 24 hrs after starting compound treatment. The pHrodo-myelin stocks were at 1 mg/ml (protein equivalent) stored in −20° C. or −80° C. freezer. Stocks were thawed and diluted with culture media into 10× seeding solution (50 μg/ml) and added 5 μl/well to 384 well cell plate.
Day 4: Cell staining and imaging. Nuclear staining solution was prepared by adding 1 μl of 10 mg/mL Hoechst-33342 to every 1 ml culture media that will be added to cell plate at 20 μl/well. The final concentration of Hoechst-33342 to cells was about 2.5 μg/ml. Cell plates were incubated for >30 min at 37° C. before imaging. Cell plates were scanned with an ArrayScan automatic high content imaging system using a 10× objective lens, 4 fields/well collected. Three measurements were obtained 1) mean total phagocytosis spot intensity per cell, 2) total cell counts per well, and 3) mean average nuclear intensity per cell for cell health.
This 384-well plate high content imaging assay was developed to quantify phagocytosis and cell health simultaneously using either BV2 or HMC3 immortalized microglial cell lines or primary microglia isolated from mouse brain. Cells were cultured in DMEM GlutaMax media (ThermoFisher) containing 10% FBS and Pen-Strep in 37° C. 5% CO2 incubator. Day 1: Cells were plated (Corning Falcon 384 well Optilux Black and clear bottom plates for imaging) with BV2 at 400 cells/45 μl/well, HMC3 at 600 cells/45 μl/well, or primary at 2000 cell/45 μl/well. Day 2: Cells were treated with 10× serially diluted compounds in a dose range of 60 μM to 3 nM for 48 hrs at 37° C. Day 3: Cells were seeded with pHrodo-myelin (for total 20 hrs) 24 hrs after starting compound treatment. The pHrodo-myelin stocks were at 1 mg/ml (protein equivalent) stored in −20° C. or −80° C. freezer. Stocks were thawed and diluted with culture media into 10× seeding solution (50 μg/ml) and added 5 μl/well to 384 well cell plate. Day 4: Cell staining and imaging. Nuclear staining solution was prepared by adding 1 μl of 10 mg/mL Hoechst-33342 to every 1 ml culture media that will be added to cell plate at 20 μl/well. The final concentration of Hoechst-33342 to cells was about 2.5 μg/ml. Cell plates were incubated for >30 min at 37° C. before imaging. Cell plates were scanned with an ArrayScan automatic high content imaging system using a 10× objective lens, 4 fields/well collected. Three measurements were obtained 1) mean total phagocytosis spot intensity per cell, 2) total cell counts per well, and 3) mean average nuclear intensity per cell for cell health.

[2] = Pharmacokinetics in C57BL/6J mice; assay type: in vivo, mouse; conditions: dosed orally at 100 mg/kg
Procedure: Pharmacokinetics of Compound 9. Compound 9 was formulated at 5 mg/ml in HPMC (1%)/Tween 80 (0.25%)/purified water. Male C57BL/6J mice aged 8-12 weeks from The Jackson Laboratory were dosed (100 mg/kg, 20 ml/kg) via oral gavage. Plasma exposures at 0.5, 1, 2, 4, 6, 8, 12 hr and terminal at 24 hr were obtained. Brain exposures were obtained at terminal 4 and 24 hrs. The pharmacokinetics of Compound 10 was obtained in a similar manner to Compound 9. Compound was formulated in hydroxyethylcellulose (1%)/Tween 80 (0.25%)/antifoam (0.050%)/water (purified) at a concentration of 5 mg/ml. 100 mg/kg, 20 ml/kg was dosed via oral gavage. Plasma exposures at 0.25, 0.5, 1, 2, 8 hr and terminal at 24 hrs were obtained. Brain exposures were obtained at terminal 4 and 24 hrs. The results are depicted in FIG. 4. Pharmacokinetics of compound 10 in C57BL/6J Mice were obtained in a similar manner as compound 9. The results are depicted in FIG. 4.

[3] = system: primary mouse microglia; assay: Phagocytosis in primary mouse microglia; assay type: cell-based; conditions: pHrodo-myelin
Procedure: Activity of Compound 9 in primary mouse microglia. Cortical tissue from C57BL/6J neonatal mice (P0-P3) was homogenized in Dulbecco's Modified Eagle Medium (DMEM), filtered through 250 and 100 μm mesh, and cultured in Advanced DMEM/F12 supplemented with 10% fetal bovine serum, 1× GlutaMAX and 1× Penicillin/Streptomycin. At 21 days in vitro (DIV), the cultures were subjected to mild trypsinization using 0.083% Trypsin-EDTA in DMEM for 30 mins to detach an intact layer of astrocytes. The microglia attached to the bottom were used as described in pHrodo-myelin phagocytosis assay to measure phagocytosis and cell health. The activity of Compound 10 in primary mouse microglia was obtained in a similar manner to Compound 9. Cortical tissue from C57BL/6J neonatal mice (P0-P3) was homogenized in Dulbecco's Modified Eagle Medium (DMEM), filtered through 250 and 100 μm mesh, and cultured in Advanced DMEM/F12 supplemented with 10% fetal bovine serum, 1× GlutaMAX and 1× Penicillin/Streptomycin. At 21 days in vitro (DIV), the cultures were subjected to mild trypsinization using 0.083% Trypsin-EDTA in DMEM for 30 mins to detach an intact layer of astrocytes. The microglia attached to the bottom were used as described in Example 13 to measure myelin phagocytosis and cell health. The results are depicted in FIG. 3. Primary Mouse Microglia of compound 10 was obtained in a similar manner to compound 9. The results are depicted in FIG. 3.

Row | SMILES | EC50 [1] [µM] | other results
1 | CC(C)(C)OC(=O)N1CCC(n2cc(-c3cncc(OCc4ccccc4Cl)c3)cn2)CC1 [Compound 1, tert-butyl 4-(4-{5-[(2-chlorophenyl)methoxy]pyridin-3-yl}-1H-pyrazol-1-yl)piperidine-1-carboxylate] | 2.33 | 
2 | CC(C)(C)OC(=O)N1CCC(n2cc(-c3cncc(OCc4ccccc4F)c3)cn2)CC1 [Compound 2, tert-butyl 4-(4-(5-((2-fluorobenzyl)oxy)pyridin-3-yl)-1H-pyrazol-1-yl)piperidine-1-carboxylate] | 1.56 | 
3 | CC(C)(C)OC(=O)N1CCC(n2cc(-c3cncc(OCc4ccccc4)c3)cn2)CC1 [Compound 4, tert-butyl 4-(4-(5-(benzyloxy)pyridin-3-yl)-1H-pyrazol-1-yl)piperidine-1-carboxylate] | 3.23 | 
4 | Cl.Clc1ccc(COc2cncc(-c3cnn(C4CCNCC4)c3)c2)c(Cl)c1 [Compound 10, 3-((2,4-dichlorobenzyl)oxy)-5-(1-(piperidin-4-yl)-1H-pyrazol-4-yl)pyridine hydrochloride] | 1.75 | exposure in brain [2]: 6 µM; exposure in plasma [2]: 2 µM; EC50 [3]: 0.54 µM; increased phagocytosis [3]: 1.5 fold
5 | CC(C)(C)CCN1CCC(n2cc(-c3cncc(OCc4ccccc4Cl)c3)cn2)CC1 [Compound 15, 3-((2-chlorobenzyl)oxy)-5-(1-(1-(3,3-dimethylbutyl)piperidin-4-yl)-1H-pyrazol-4-yl)pyridine] | 2.26 | 
6 | CC(C)(C)CC(=O)N1CCC(n2cc(-c3cncc(OCc4ccccc4Cl)c3)cn2)CC1 [Compound 16, 1-(4-(4-(5-((2-chlorobenzyl)oxy)pyridin-3-yl)-1H-pyrazol-1-yl)piperidin-1-yl)-3,3-dimethylbutan-1-one] | 1.17 | 
7 | C[C@@H](Oc1cncc(-c2cnn(C3CCNCC3)c2)c1)c1ccc(Cl)cc1 [Compound 23, (R)-3-(1-(4-chlorophenyl)ethoxy)-5-(1-(piperidin-4-yl)-1H-pyrazol-4-yl)pyridine] | 2.6 | 

These reach a lower EC50 [1]. Values come first.

Row | EC50 [1] [µM] | SMILES | other results
8 | 1.03 | Cc1ccccc1COc1cncc(-c2cnn(C3CCN(C(=O)OC(C)(C)C)CC3)c2)c1 [Compound 3, tert-butyl 4-(4-(5-((2-methylbenzyl)oxy)pyridin-3-yl)-1H-pyrazol-1-yl)piperidine-1-carboxylate] | 
9 | 0.756 | CC(C)(C)OC(=O)N1CCC(n2cc(-c3cncc(OCc4ccc(Br)cc4)c3)cn2)CC1 [Compound 7, tert-butyl 4-(4-(5-((4-bromobenzyl)oxy)pyridin-3-yl)-1H-pyrazol-1-yl)piperidine-1-carboxylate] | 
10 | 0.741 | Cl.Clc1ccccc1COc1cncc(-c2cnn(C3CCNCC3)c2)c1 [Compound 9, 3-((2-chlorobenzyl)oxy)-5-(1-(piperidin-4-yl)-1H-pyrazol-4-yl)pyridine hydrochloride] | exposure in brain [2]: 0.5 µM; exposure in plasma [2]: 5 µM; EC50 [3]: 1.3 µM; increased phagocytosis [3]: 1.8 fold
11 | 0.395 | C[C@H](Oc1cncc(-c2cnn(C3CCNCC3)c2)c1)c1ccccc1Cl [Compound 21, (S)-3-(1-(2-chlorophenyl)ethoxy)-5-(1-(piperidin-4-yl)-1H-pyrazol-4-yl)pyridine] | 
